Experimental data published in patent publication US11014908B2, “Chemical compounds” (Pfizer Inc., priority 2018, dated 2021).

Tests used:
Hb in human whole blood = molecular target: T1, Hb in human whole blood (Homo sapiens, UniProt P68871+P69905); assay: Whole blood oxygen affinity assay (Hemox analyzer), human blood; details: 1 mM compound, 1 hour at 25 C, relative to DMSO
T1 construct: measured in human, dog, and mouse whole blood; from tissue; host or cells: human whole blood
Excerpt: Whole Blood Oxygen Affinity Assay
Oxygen affinity is a marker of the ability of Hb to bind and release oxygen in solution. It can be determined in whole blood by measuring the percentage of oxygenated and deoxygenated Hb present at a given oxygen concentration. Oxygen affinity is expressed as the p50, the partial pressure of oxygen at which 50% of the Hb in solution has oxygen bound, or the p20, the partial pressure of oxygen at which 20% of the Hb in solution has oxygen bound.
To determine the effects of compounds of the invention on oxygen affinity the p50 and p20 were measured in human, dog, and mouse whole blood using a Hemeox Analyzer (TCS Scientific). The blood was spiked with a compound of the invention to a concentration of 1 mM and incubated for 1 hour at 25 C with constant rotation. A concentration of 1 mM of compound was selected to approximate 20% hemoglobin occupancy in whole blood. Controls with the same concentration of DMSO, but no compound were incubated in the same way at the same time. Following incubation, samples were immediately assayed for oxygen affinity using the Hemox analyzer. Fifty μL of blood sample was diluted into 5 mL of hemox buffer (TCS Scientific), which had been pre-incubated to 37 C. Following dilution, samples were loaded into the analysis chamber, and fully oxygenated using compressed air. Once samples had reached an pO2 of >150 torr, the measurement was initiated by switching to N2, and the percent oxyhemoglobin as a function of partial pressure was recorded. The p20 and p50 of each sample were recorded from the instrument readout. Data are reported as the percent (%) change relative to DMSO according to the following calculations: […]

[1] = molecular target: T2, purified sickle cell hemoglobin (HbS) (Homo sapiens, UniProt P68871+P69905, E7V); assay: Binding affinity to purified HbS by Surface Plasmon Resonance (SPR); details: crosslinked biotinylated HbS, 1:1 binding model
T2 construct: HbS was obtained from the blood of homozygous S/S patients; from tissue; host or cells: red blood cells of homozygous S/S patients
Summary of the method: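 Patient-derived HbS, purified and crosslinked between beta subunits (Lys82-Lys82), biotinylated and captured on streptavidin sensor at 4000–5000 RU. Running buffer 100 mM potassium phosphate pH 7.5, 1 mM EDTA, 0.1 mg/mL BSA, 1% DMSO; 2 min association, ≥5 min dissociation, ≥4 concentrations; Kd from 1:1 model fit.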

HbS = molecular target: T3, HbS (Homo sapiens, UniProt P68871+P69905, E7V); assay: 'R'-'T' assay (conversion of oxy HbS to deoxy HbS under deoxygenating conditions); format: biochemical; details: 50% inhibition of HbS 'R'-'T' conversion; 3 uM HbS, <1% O2
T3 construct: HbS was obtained from the blood of homozygous S/S patients; from tissue; host or cells: red blood cells of homozygous S/S patients
Summary of the method: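 Oxy HbS diluted to 3 µM in 100 mM potassium phosphate pH 7.4, incubated 1 h at room temperature with compound, then held under <1% O2 for 2 h. Conversion followed by background-corrected 415/430 nm absorbance ratio at 0, 90 and 120 min; percent effect normalized to tucaresol, IC50 from concentration series.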

[2] = Single dose study in sickle Townes mice: exposure in whole blood; format: in vivo; details: male, Townes (sickle cell disease model), mouse, SCD mice, n=3
Experimental: In Vivo Studies Mouse Model
The effect of the compounds of the invention was evaluated in-male sickle Townes mice in a single dose study. Compounds of the invention were administered in amounts set out in Tables 7, 8 and 9 that follow by oral gavage. Control mice received vehicle. Blood (50 μL) was drawn at 0.5 h, 1 h, 4 h, 7 h, 10 h, and 24 h. To measure exposure in whole blood, 20 μL sample was used. Blood drawn at 0.5 h was also evaluated for cell sickling.

Townes SCD mice = assay: Chronic dosing study (BID, 15 days) in Townes SCD mice; format: in vivo, mouse; details: 100 mg/kg BID for 15 days, n=4-5, Townes SCD mice, vs vehicle
Experimental: Following 15 days of dosing, blood samples were collected from all animals to run in the Hemeox analyzer to generate oxygen affinity curves, complete blood analysis was performed using Idexx hematology Analyzer, and cell sickling assessed as described before. Soluble Vascular Adhesion Molecule 1 levels (sVCAM1) were assessed by Enzyme linked immunosorbent assay (ELISA) from R&D systems. Results are presented below in Tables 7, 8 and 9.

| SMILES | Reduction in p20 (%) Human (Hb in human whole blood) [%] | Reduction in p50 (%) Human (Hb in human whole blood) [%] | Kd [1] [nM] | IC50 (HbS) [nM] | concentration at 0.5 h ([2]; single dose 5 mg/kg oral gavage) [µM] | concentration at 0.5 h ([2]; single dose 50 mg/kg oral gavage) [µM] | Hb, Change (increase) (Townes SCD mice) [% increase] | Hematocrit, Change (increase) (Townes SCD mice) [% increase] | RBC sickling, Change (decrease) (Townes SCD mice) [% decrease] | RBCs, Change (increase) (Townes SCD mice) [% increase] | Reticulocytes, Change (decrease) (Townes SCD mice) [% decrease] | p20, Change (decrease) (Townes SCD mice) [% decrease] | p50, Change (decrease) (Townes SCD mice) [% decrease] |
| --- | --- | --- | --- | --- | --- | --- | --- | --- | --- | --- | --- | --- | --- |
| C[C@H](Oc1cc2cc(F)ccc2nc1N)c1cc(C(=O)O)ccc1-n1cccn1 [Example 4, 3-{(1S)-1-[(2-amino-6-fluoroquinolin-3-yl)oxy]ethyl}-4-(1H-pyrazol-1-yl)benzoic Acid] | 40 ± 4 | 7 ± 3 | 100 | 4920 | – | – | – | – | – | – | – | – | – |
| C[C@H](Oc1cc2cc(C(N)=O)ccc2nc1N)c1ncc(F)cc1-n1cccn1 [Example 27, 2-amino-3-{(1S)-1-[5-fluoro-3-(1H-pyrazol-1-yl)pyridin-2-yl]ethoxy}quinoline-6-carboxamide] | 70 ± 4 | 26 ± 1 | 183 | 5360 | 7.4 | 208 | 54.4 ± 8.7 | 42.0 ± 12.7 | 19.2 ± 5.4 | 51.9 ± 8.3 | 18.4 ± 5.5 | 10.8 ± 3.8 | 7.89 ± 3.36 |
| C[C@H](Oc1cc2cc(C(N)=O)ccc2nc1N)c1cc2[nH]ncc2cc1-n1cccn1 [Example 61, 2-amino-3-{(1S)-1-[5-(1H-pyrazol-1-yl)-1H-indazol-6-yl]ethoxy}quinoline-6-carboxamide] | 14 ± 8 | 1 ± 6 | 36 | 5450 | – | – | – | – | – | – | – | – | – |
| C[C@H](Oc1cc2cc(F)c(Cl)cc2nc1N)c1ncccc1-n1cccn1 [Example 29, 7-chloro-6-fluoro-3-{(1S)-1-[3-(1H-pyrazol-1-yl)pyridin-2-yl]ethoxy}quinolin-2-amine] | – | – | 67 | 4580 | – | – | – | – | – | – | – | – | – |
| C[C@H](Oc1cc2cc(C(N)=O)cc(F)c2nc1N)c1ncc(F)cc1-n1cccn1 [Example 35, 2-amino-8-fluoro-3-{(1S)-1-[5-fluoro-3-(1H-pyrazol-1-yl)pyridin-2-yl]ethoxy}quinoline-6-carboxamide] | – | – | 68 | 3930 | – | – | – | – | – | – | – | – | – |
